The assay deals with ANTIGEN-INDUCED VASCULAR PERMEABILITY CHANGES IN GUINEA-PIG CONJUNCTIVA
The experiment in a line: Inhibition of antigen-induced ocular inflammation (vascular permeability, extravasation of [99mTc]-human serum albumin into the conjunctiva). Type of assay: in vivo. The note with it: ovalbumin-sensitized guinea-pigs. As to the method:
Guinea-pigs were actively sensitized to produce IgG1 and IgE antibodies to ovalbumin (2 weeks). Animals were then challenged topically in the eyes (10 µl of 2.5% w/v ovalbumin per eye) followed by intravenous administration of [^99mTc]-human serum albumin (0.25 mCi). Animals were then challenged with antigen either once or twice (2nd challenge 24 hours later). The response was a marked increase in vascular permeability as measured by extravasation of [^99mTc]-labelled human serum albumin into the conjunctiva.
To measure the inhibitory effect of Compounds I-IV, at varying times before antigen challenge, Compounds I-IV were administered either i.v. (1 mg/kg dosage) or topically (0.1% suspensions or_ solutions in 10 µl of 0.5% hydroxy ethylcellulose).

Setting [1] is: single challenge, topical 0.1% in 10 µl of 0.5% hydroxy ethylcellulose, pre-treat. time 5 min.
Where [2] appears, read: second challenge (24 hours later), topical 0.1% in 10 µl of 0.5% hydroxy ethylcellulose, pre-treat. time 5 min.

Molecules are shown by their SMILES. Marks after values point to notes of the source that are not given here.

`OCc1ccccc1C=CCc1cc2c(cc1O)CCO2` [IV, 2,3-dihydro-6-(3-(2-hydroxymethyl)phenyl-2-propenyl)-5-benzofuranol]: the “% Inhib.” value by setting is: (second challenge (24 hours later), topical 0.1% in 10 µl of 0.5% hydroxy ethylcellulose, pre-treat. time 60 min) 59.5* %; under setting [1], 28.8** %.
As for `COc1ccc2nc3cc(OC)c(=O)c(Br)c-3sc2c1` [III, 4-bromo-2,7-dimethoay-3H-phenothiazin-3-one], the “% Inhib.” value is, setting by setting: under setting [2], 48.0* %; under setting [1], 38.8*** %.
Regarding `CCCc1c(OCCCS(=O)(=O)c2ccc(C(=O)CCC(=O)O)cc2)ccc(C(C)=O)c1O` [Compound I, 4-((3-(4-acetyl-3-hydroxy-2-propylphenoxy)-propyl)sulfonyl)-Y-oxobenzene butanoic acid], the “% Inhib.” value is on record as 42.2** % (second challenge (24 hours later), i.v. 1 mg/kg, pre-treat. time 2 min); 37.0** % under setting [2]; 1.5% (single challenge, i.v. 1 mg/kg, pre-treat. time 2 min); 1.7% under setting [1].
Turning to `CCCc1c(OCCCSc2ccc([C@H](O)[C@@H](C)CC(=O)O)cc2)ccc(C(C)=O)c1O` (relative stereo) [II, (BS^*,YR^*)-4-(3-(4-acetyl-3-hydroxy-2-propyl-phenoxy)propylthio)-Y-hydroxy-B-methylbenzene-butanoic acid], the “% Inhib.” value under setting [2] was 30.3* % and the “% Inhib.” value under setting [1] was 0%.

The values above are taken from EP0247723A2, “Compositions and methods for treating allergic conjuctivitis” (MERCK FROSST CANADA INC., priority 1986, dated 1987).
